Measurements published in ChEMBL document CHEMBL3991601, “The target landscape of clinical kinase drugs” (Science, 2017).
The source made the active and inactive calls. For most assays here, no stated cut-off is given here; in the data, actives have a measured Kd and inactives only a lower limit.

Key:
[1] = molecular target: Mitogen-activated protein kinase 8 (Homo sapiens, UniProt P45983)
[2] = molecular target: T1, Discoidin domain-containing receptor 2 (Homo sapiens, UniProt Q16832)
T1 sequence (Q16832 whole entry): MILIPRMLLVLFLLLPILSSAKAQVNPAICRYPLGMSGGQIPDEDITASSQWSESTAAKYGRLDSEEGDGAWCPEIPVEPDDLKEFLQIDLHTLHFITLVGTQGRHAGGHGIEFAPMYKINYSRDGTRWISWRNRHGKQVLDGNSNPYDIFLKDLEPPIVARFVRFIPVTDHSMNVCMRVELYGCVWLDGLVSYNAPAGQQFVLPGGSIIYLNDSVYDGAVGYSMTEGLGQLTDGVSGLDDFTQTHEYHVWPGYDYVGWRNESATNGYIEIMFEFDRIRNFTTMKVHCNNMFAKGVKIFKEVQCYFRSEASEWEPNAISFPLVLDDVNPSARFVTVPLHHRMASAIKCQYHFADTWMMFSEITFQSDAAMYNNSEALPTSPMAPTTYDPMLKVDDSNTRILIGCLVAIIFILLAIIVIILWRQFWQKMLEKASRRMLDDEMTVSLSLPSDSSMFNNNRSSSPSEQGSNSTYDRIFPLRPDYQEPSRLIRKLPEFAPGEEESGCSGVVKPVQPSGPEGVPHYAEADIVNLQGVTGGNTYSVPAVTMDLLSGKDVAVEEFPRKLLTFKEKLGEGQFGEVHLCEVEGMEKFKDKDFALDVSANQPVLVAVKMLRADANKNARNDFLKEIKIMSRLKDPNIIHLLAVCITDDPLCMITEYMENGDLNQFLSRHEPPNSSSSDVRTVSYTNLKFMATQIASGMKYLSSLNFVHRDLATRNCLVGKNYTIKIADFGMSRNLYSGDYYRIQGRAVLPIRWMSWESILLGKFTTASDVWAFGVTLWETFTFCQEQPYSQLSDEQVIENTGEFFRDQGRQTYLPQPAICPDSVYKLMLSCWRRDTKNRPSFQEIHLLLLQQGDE

[3] = molecular target: Mitogen-activated protein kinase 10 (Homo sapiens, UniProt P53779)
Chain of Mitogen-activated protein kinase 10 (P53779 whole entry): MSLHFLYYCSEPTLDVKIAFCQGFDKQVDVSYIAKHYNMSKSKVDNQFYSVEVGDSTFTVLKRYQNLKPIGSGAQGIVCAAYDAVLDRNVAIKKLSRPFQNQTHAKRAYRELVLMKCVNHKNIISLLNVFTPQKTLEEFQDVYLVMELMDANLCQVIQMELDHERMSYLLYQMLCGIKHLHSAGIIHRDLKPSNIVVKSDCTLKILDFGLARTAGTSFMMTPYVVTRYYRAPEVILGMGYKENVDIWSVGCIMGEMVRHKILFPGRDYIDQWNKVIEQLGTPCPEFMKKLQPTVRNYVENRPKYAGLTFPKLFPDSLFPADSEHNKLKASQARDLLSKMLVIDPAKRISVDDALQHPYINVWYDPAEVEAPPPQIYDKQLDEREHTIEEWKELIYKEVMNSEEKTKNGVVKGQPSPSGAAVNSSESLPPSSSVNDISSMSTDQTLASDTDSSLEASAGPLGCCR

[4] = molecular target: DnaJ homolog subfamily A member 1 (Homo sapiens, UniProt P31689)
Chain of DnaJ homolog subfamily A member 1 (P31689 whole entry): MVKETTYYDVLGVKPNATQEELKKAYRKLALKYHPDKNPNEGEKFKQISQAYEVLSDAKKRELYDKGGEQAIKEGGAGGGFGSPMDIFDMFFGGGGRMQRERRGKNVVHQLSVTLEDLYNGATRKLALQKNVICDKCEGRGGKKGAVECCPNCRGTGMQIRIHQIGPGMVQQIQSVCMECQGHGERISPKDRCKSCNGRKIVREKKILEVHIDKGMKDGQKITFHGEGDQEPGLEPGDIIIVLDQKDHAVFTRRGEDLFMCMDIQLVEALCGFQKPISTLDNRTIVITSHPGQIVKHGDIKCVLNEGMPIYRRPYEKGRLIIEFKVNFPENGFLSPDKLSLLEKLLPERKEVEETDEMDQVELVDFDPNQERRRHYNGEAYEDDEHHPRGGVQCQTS

[5] = molecular target: T2, Serine/threonine-protein kinase Nek3 (Homo sapiens, UniProt P51956)
T2 sequence (P51956 whole entry): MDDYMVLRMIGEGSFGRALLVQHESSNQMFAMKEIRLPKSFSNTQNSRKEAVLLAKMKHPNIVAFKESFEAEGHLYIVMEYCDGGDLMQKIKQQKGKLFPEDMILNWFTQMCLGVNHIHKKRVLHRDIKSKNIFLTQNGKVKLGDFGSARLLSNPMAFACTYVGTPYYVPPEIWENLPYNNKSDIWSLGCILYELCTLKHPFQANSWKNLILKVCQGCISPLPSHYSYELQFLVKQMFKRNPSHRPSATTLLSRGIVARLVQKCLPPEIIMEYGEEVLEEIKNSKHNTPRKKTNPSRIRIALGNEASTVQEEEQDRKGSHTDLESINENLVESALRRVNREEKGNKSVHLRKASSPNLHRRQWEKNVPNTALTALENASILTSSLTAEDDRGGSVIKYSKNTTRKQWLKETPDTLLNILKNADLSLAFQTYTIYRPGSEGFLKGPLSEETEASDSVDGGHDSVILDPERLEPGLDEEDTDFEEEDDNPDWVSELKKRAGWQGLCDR

ADP/ATP translocase 2 = molecular target: T3, ADP/ATP translocase 2 (Homo sapiens, UniProt P05141)
T3 sequence (P05141 whole entry): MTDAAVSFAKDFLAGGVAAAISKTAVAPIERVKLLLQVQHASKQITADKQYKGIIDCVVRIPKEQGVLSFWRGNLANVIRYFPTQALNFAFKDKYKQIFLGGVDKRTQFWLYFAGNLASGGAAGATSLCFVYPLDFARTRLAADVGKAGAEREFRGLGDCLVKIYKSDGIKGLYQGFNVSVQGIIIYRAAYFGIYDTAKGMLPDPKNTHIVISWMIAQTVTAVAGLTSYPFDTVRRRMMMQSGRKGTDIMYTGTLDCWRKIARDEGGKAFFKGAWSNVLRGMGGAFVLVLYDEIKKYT

[6] = molecular target: T4, MAP/microtubule affinity-regulating kinase 4 (Homo sapiens, UniProt Q96L34)
T4 sequence (Q96L34 whole entry): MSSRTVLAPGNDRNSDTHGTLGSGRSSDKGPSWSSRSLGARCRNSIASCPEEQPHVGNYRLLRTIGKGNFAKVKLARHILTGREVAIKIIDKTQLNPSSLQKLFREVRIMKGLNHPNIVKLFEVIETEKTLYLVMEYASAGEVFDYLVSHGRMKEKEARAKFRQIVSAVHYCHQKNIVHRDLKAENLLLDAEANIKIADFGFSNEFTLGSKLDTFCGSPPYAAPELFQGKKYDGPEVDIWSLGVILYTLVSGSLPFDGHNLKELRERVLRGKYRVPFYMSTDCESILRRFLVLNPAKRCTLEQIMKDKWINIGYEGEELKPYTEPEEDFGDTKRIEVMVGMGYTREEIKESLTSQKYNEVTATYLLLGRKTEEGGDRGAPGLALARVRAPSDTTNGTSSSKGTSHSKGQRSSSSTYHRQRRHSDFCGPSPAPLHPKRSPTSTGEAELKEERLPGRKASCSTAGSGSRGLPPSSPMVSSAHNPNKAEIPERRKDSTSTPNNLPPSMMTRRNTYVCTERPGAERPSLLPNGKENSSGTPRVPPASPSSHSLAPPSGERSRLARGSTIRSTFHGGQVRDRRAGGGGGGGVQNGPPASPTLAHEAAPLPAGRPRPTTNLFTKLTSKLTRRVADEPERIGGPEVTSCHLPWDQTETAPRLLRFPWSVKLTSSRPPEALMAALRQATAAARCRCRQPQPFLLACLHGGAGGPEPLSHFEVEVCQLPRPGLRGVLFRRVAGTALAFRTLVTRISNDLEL

[7] = molecular target: Receptor-interacting serine/threonine-protein kinase 2 (Homo sapiens, UniProt O43353)
Chain of Receptor-interacting serine/threonine-protein kinase 2 (O43353 whole entry): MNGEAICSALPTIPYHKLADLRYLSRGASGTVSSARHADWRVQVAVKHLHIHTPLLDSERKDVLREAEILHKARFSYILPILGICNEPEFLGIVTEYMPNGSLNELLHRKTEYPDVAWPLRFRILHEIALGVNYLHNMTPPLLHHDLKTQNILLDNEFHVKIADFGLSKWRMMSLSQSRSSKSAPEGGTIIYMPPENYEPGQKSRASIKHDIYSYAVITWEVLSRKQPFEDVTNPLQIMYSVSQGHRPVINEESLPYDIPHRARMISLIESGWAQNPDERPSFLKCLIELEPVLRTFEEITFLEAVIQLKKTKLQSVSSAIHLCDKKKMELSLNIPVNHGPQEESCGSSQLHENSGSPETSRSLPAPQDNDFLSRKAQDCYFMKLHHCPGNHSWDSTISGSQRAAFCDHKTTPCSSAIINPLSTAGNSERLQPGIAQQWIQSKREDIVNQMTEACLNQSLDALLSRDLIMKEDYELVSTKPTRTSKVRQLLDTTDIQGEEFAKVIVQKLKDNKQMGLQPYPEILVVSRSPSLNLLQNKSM

[8] = molecular target: Tyrosine-protein kinase Fyn (Homo sapiens, UniProt P06241)
Chain of Tyrosine-protein kinase Fyn (P06241 whole entry): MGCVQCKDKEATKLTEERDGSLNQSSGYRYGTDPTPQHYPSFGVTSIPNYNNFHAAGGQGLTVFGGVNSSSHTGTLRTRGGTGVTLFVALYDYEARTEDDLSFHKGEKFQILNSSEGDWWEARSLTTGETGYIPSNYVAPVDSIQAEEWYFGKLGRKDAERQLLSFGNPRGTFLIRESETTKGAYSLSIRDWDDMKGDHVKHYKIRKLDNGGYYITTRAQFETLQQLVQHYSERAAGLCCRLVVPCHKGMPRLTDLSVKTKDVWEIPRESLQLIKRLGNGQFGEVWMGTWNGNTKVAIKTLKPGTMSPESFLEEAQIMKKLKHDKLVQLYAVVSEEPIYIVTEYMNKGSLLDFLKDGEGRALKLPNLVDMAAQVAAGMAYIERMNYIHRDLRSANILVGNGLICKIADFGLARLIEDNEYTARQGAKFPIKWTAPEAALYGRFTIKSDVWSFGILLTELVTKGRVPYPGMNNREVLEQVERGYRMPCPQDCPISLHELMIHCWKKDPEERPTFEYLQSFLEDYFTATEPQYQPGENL

Chain of Mitogen-activated protein kinase 8 (P45983 whole entry, the tested form may be a part): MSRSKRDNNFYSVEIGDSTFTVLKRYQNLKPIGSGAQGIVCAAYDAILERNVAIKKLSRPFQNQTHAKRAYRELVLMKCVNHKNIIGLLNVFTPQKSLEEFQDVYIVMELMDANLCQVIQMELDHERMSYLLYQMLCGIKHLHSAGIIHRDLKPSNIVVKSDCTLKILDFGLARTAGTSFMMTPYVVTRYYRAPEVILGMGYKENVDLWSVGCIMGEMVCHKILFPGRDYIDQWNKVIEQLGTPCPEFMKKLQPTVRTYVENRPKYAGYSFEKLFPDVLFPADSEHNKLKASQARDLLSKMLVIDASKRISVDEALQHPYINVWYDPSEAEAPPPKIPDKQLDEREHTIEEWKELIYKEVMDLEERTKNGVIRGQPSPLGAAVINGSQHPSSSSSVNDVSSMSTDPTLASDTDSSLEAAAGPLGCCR

O=C(O)[C@]1(Cc2cccc(Nc3nccs3)n2)CC[C@@H](Oc2cccc(Cl)c2F)CC1 [MK-5108]
Kd [1]: 1.15 µM (active) | Kd [2]: > 30 µM (inactive) | Kd [3]: 3.08 µM (active) | Kd [4]: > 30 µM (inactive) | Kd [5]: > 30 µM (inactive) | Kd (ADP/ATP translocase 2): > 30 µM (inactive) | Kd [6]: > 30 µM (inactive) | Kd [7]: > 30 µM (inactive) | Kd [8]: > 30 µM (inactive)

CN(C)C(=O)c1cc2cnc(Nc3ccc(N4CCNCC4)cn3)nc2n1C1CCCC1 [RIBOCICLIB]
Kd [1]: > 30 µM (inactive) | Kd [2]: > 30 µM (inactive) | Kd [3]: > 30 µM (inactive) | Kd [4]: > 30 µM (inactive) | Kd [5]: > 30 µM (inactive) | Kd (ADP/ATP translocase 2): > 30 µM (inactive) | Kd [6]: > 30 µM (inactive) | Kd [7]: > 30 µM (inactive) | Kd [8]: > 30 µM (inactive)

C[C@@H]1CN(Cc2ccc(F)cc2)[C@@H](C)CN1C(=O)c1cc2c(C(=O)C(=O)N(C)C)cn(C)c2cc1Cl [TALMAPIMOD]
Kd [1]: > 30 µM (inactive) | Kd [2]: > 30 µM (inactive) | Kd [3]: > 30 µM (inactive) | Kd [4]: > 30 µM (inactive) | Kd [5]: > 30 µM (inactive) | Kd (ADP/ATP translocase 2): > 30 µM (inactive) | Kd [6]: > 30 µM (inactive) | Kd [7]: > 30 µM (inactive) | Kd [8]: > 30 µM (inactive)

O=C1NC(=O)/C(=C/c2ccc3nccc(-c4ccncc4)c3c2)S1 [GSK-1059615]
Kd [1]: > 30 µM (inactive) | Kd [2]: > 30 µM (inactive) | Kd [3]: > 30 µM (inactive) | Kd [4]: > 30 µM (inactive) | Kd [5]: > 30 µM (inactive) | Kd (ADP/ATP translocase 2): > 30 µM (inactive) | Kd [6]: > 30 µM (inactive) | Kd [7]: > 30 µM (inactive) | Kd [8]: > 30 µM (inactive)

Cn1cc(-c2ccc3nnc(C(F)(F)c4ccc5ncccc5c4)n3n2)cn1 [JNJ-38877605]
Kd [1]: > 30 µM (inactive) | Kd [2]: > 30 µM (inactive) | Kd [3]: > 30 µM (inactive) | Kd [4]: > 30 µM (inactive) | Kd [5]: > 30 µM (inactive) | Kd (ADP/ATP translocase 2): > 30 µM (inactive) | Kd [6]: > 30 µM (inactive) | Kd [7]: > 30 µM (inactive) | Kd [8]: > 30 µM (inactive)

CO[C@H]1C[C@@H]2CC[C@@H](C)[C@@](O)(O2)C(=O)C(=O)N2CCCC[C@H]2C(=O)O[C@H]([C@H](C)C[C@@H]2CC[C@@H](OCCO)[C@H](OC)C2)CC(=O)[C@H](C)/C=C(\C)[C@@H](O)[C@@H](OC)C(=O)[C@H](C)C[C@H](C)/C=C/C=C/C=C/1C [EVEROLIMUS]
Kd [1]: > 30 µM (inactive) | Kd [2]: > 30 µM (inactive) | Kd [3]: > 30 µM (inactive) | Kd [4]: > 30 µM (inactive) | Kd [5]: > 30 µM (inactive) | Kd (ADP/ATP translocase 2): > 30 µM (inactive) | Kd [6]: > 30 µM (inactive) | Kd [7]: > 30 µM (inactive) | Kd [8]: > 30 µM (inactive)

Cc1ccc(-n2nc(C(C)(C)C)cc2NC(=O)NCc2cc(F)ccc2Oc2ccc3c(cnn3CCO)c2)cc1 [PEXMETINIB]
Kd [1]: > 30 µM (inactive) | Kd [2]: 1.14 µM (active) | Kd [3]: 0.195 µM | Kd [4]: > 30 µM (inactive) | Kd [5]: > 30 µM (inactive) | Kd (ADP/ATP translocase 2): > 30 µM (inactive) | Kd [6]: > 30 µM (inactive) | Kd [7]: > 30 µM (inactive) | Kd [8]: 2.14 µM

CC(=O)Nc1cccc(-n2c(=O)n(C3CC3)c(=O)c3c(Nc4ccc(I)cc4F)n(C)c(=O)c(C)c32)c1 [TRAMETINIB]
Kd [1]: > 30 µM (inactive) | Kd [2]: > 30 µM (inactive) | Kd [3]: > 30 µM (inactive) | Kd [4]: > 30 µM (inactive) | Kd [5]: > 30 µM (inactive) | Kd (ADP/ATP translocase 2): > 30 µM (inactive) | Kd [6]: > 30 µM (inactive) | Kd [7]: > 30 µM (inactive) | Kd [8]: > 30 µM (inactive)

COC(=O)N[C@@H](C)CNc1nccc(-c2cn(C(C)C)nc2-c2cc(Cl)cc(NS(C)(=O)=O)c2F)n1 [ENCORAFENIB]
Kd [1]: 1.87 µM (active) | Kd [2]: > 30 µM (inactive) | Kd [3]: > 30 µM (inactive) | Kd [4]: > 30 µM (inactive) | Kd [5]: > 30 µM (inactive) | Kd (ADP/ATP translocase 2): > 30 µM (inactive) | Kd [6]: > 30 µM (inactive) | Kd [7]: 0.323 µM (active) | Kd [8]: > 30 µM (inactive)

O=C(Nc1ccc(-c2ccnc(Nc3ccc(N4CCOCC4)cc3)n2)cc1)C1CCCN1 (stereo not given) [XL-019]
Kd [1]: 0.844 µM (active) | Kd [2]: > 30 µM (inactive) | Kd [3]: > 30 µM (inactive) | Kd [4]: > 30 µM (inactive) | Kd [5]: 0.353 µM (active) | Kd (ADP/ATP translocase 2): > 30 µM (inactive) | Kd [6]: > 30 µM (inactive) | Kd [7]: > 30 µM (inactive) | Kd [8]: > 30 µM (inactive)
